Laboratory results taken from patent US20200405666A9, “TREATMENT OF SYMPTOMS ASSOCIATED WITH FEMALE GASTROPARESIS” (priority 2011, published 2020).

Test system: symptoms of diabetic gastroparesis
Experiment: Phase 2 randomized, double-blind, placebo-controlled study METO-IN-002 of metoclopramide nasal spray: symptom scores (mGCSI-DD, GCSI-DD, PAGI-SYM, other endpoints)
Format: in vivo, human
Parameters: key to Stomach Fullness / Early Satiety / Feeling Full / Loss of Appetite / Bloating / Stomach Larger / Upper Abdominal Pain / Upper Abdominal Discomfort / mGCSI-DD (primary endpoint) / Nausea / Retching / Vomiting / Sheehan Disability Scales / Investigator Assessment of Overall Gastroparesis Severity / Subject Assessment of Overall Gastroparesis Severity / Investigator Assessment of Overall Treatment Effect / Subject Assessment of Overall Treatment Effect / Days w/o Vomiting / Days w/o Nausea / Days w/o Vomiting or Nausea / Days w/o Upper Abdominal Pain or Upper Abdominal Discomfort / Nausea Response by Response Threshold / GCSI-DD / Days w/o Vomiting or Retching &, No Use of Rescue Medication / Nausea Responder Analysis / Overall Severity of Gastroparesis Symptoms - Subject / PAGI-SYM Questionnaire / Nausea/Vomiting (listed under PAGI-SYM Questionnaire) / Bloating (listed under PAGI-SYM Questionnaire) / Upper Abdominal Pain/Discomfort (listed under PAGI-SYM Questionnaire) / Early Satiety (listed under PAGI-SYM Questionnaire): A=Favors Active; P=Favors Placebo
Conditions: for mGCSI-DD (primary endpoint) / Bloating / Bloating (listed under PAGI-SYM Questionnaire) / Days w/o Nausea / Days w/o Upper Abdominal Pain or Upper Abdominal Discomfort / Days w/o Vomiting / Days w/o Vomiting or Nausea / Days w/o Vomiting or Retching &, No Use of Rescue Medication / Early Satiety / Early Satiety (listed under PAGI-SYM Questionnaire) / Feeling Full / GCSI-DD / Investigator Assessment of Overall Gastroparesis Severity / Investigator Assessment of Overall Treatment Effect / Loss of Appetite / Nausea / Nausea Responder Analysis / Nausea Response by Response Threshold / Nausea/Vomiting (listed under PAGI-SYM Questionnaire) / Overall Severity of Gastroparesis Symptoms - Subject / PAGI-SYM Questionnaire / Retching / Sheehan Disability Scales / Stomach Fullness / Stomach Larger / Subject Assessment of Overall Gastroparesis Severity / Subject Assessment of Overall Treatment Effect / Upper Abdominal Discomfort / Upper Abdominal Pain / Upper Abdominal Pain/Discomfort (listed under PAGI-SYM Questionnaire) / Vomiting: Week 4, vs placebo
Method: Example 1: A Multicenter, Randomized, Double-Blind, Placebo-Controlled, Parallel Group, Dose-Ranging Clinical Study to Evaluate the Efficacy and Safety of Metoclopramide Nasal Spray Solution in Diabetic Subjects with Gastroparesis
The objectives of this study were to evaluate the safety and the effectiveness of two doses of metoclopramide nasal spray solution, 10 mg and 14 mg, compared to placebo in reducing the symptoms of diabetic gastroparesis and to assess the plasma concentrations of two doses of metoclopramide nasal spray in subjects with diabetic gastroparesis following a single dose and at steady state. The aforementioned dosages for the treatment and control of gastroparesis were administered before meals and/or before bed time. Subjects who met the entry criteria after the Washout Period (Day −7 to Day −1) were randomized using an IVRS, to metoclopramide nasal spray 10 mg, 14 mg, or placebo, in roughly equal numbers (approximately 1:1:1) using a predetermined randomization schedule employing permuted blocks. Randomization was preformed centrally.
Metoclopramide nasal spray solution, 200 mg/mL base (as monohydrochloride monohydrate) is a clear colorless to pale-yellow aqueous solution manufactured for Evoke Pharma. The metoclopramide nasal spray was packaged in a 10 mL amber glass vial mounted with a metered nasal spray pump. The metered dose vial delivered a 50 μL or 70 μL spray (10 mg or 14 mg of metoclopramide base respectively) with each actuation. One 10 mL vial contained sufficient metoclopramide nasal spray to deliver 120 doses of 10 mg or 14 mg.
A vehicle control was used as the placebo for metoclopramide nasal spray solution. The placebo spray was packaged in a 10 mL amber glass vial mounted with a metered nasal spray pump. The metered dose vial delivered a 50 μL spray with each actuation. One 10 mL vial contained sufficient placebo to deliver 120 doses. The delivery of either a 50 μL or 70 μL spray is indistinguishable to the subject or study staff.
A 7-day Washout Period preceded randomization. During this time, and for the duration of the study, subjects were asked to discontinue use of all medications that are known to ameliorate or exacerbate symptoms associated with diabetic gastroparesis. Subjects were trained on the use of an interactive voice response system (IVRS) to record the severity of nine gastroparesis symptoms of the GCSI-DD and additional symptoms such as: severity of abdominal pain and abdominal discomfort, number of hours of nausea, number of episodes of vomiting, and overall severity of gastroparesis symptoms in a daily diary. The IVRS was used during the treatment period for self-reported assessments. Subjects completed these diary assessments via the IVRS each evening.
Subjects with a mean GCSI-DD total score of <2.0 or >4.0 during the 7-day Washout Period were excluded from the study.
At the Randomization Visit (Day 0), the Patient Assessment of Upper Gastrointestinal Disorders Symptoms (PAGI-SYM) Questionnaire, and disability questionnaires were administered to the subject and the Investigator and subject assessed overall gastroparesis symptom severity (OGS) prior to taking study drug. Subjects began taking the study drug at the clinical site with a single dose on Day 0. The subjects returned to the clinic for safety and efficacy evaluations on Visits 4, 5, 6, and 7 (Days 7, 14, 21, and 28).
At each scheduled study visit to the clinical study site, the IVRS daily diary compliance was reviewed. In addition, at Visit 5 (Day 14), the PAGI-SYM Questionnaire was administered to the subject and the Investigator and subject assessed OGS severity. At the Final Visit (Day 28) subjects took their last dose of study drug at the clinical site and returned their vial of unused/remaining study drug. The subject completed the PAGI-SYM, and disability questionnaires. The Investigator and subject assessed OGS and overall treatment effect (OTE). […]

[1] = males, 10 mg IN four times daily
[2] = males, 10 mg IN four times daily, listed as Metoclopramide
[3] = males, 14 mg IN four times daily

## CCN(CC)CCNC(=O)c1cc(Cl)c(N)cc1OC [metoclopramide, -amino-5-chloro-N-(2-(diethylamino)ethyl)-2-methoxybenzamide]
females, 14 mg IN four times daily
  mGCSI-DD (primary endpoint): A (p < 0.05)
females, 14 mg IN four times daily, listed as Metoclopramide
  Mean mGCSI-DD total score at Week 4: 1.7
females, 14 mg IN vs Metoclopramide 10 mg
  Difference of Least Square Means, mGCSI-DD change from Baseline to Week 4: −0.00
females, 14 mg IN vs placebo
  Difference of Least Square Means, mGCSI-DD change from Baseline to Week 4: −0.38
Male subjects, 11 symptoms collected
  Symptoms that showed a positive trend: 1 of 11
males, 10 mg IN and 14 mg IN arms, Baseline to Week 4
  Statistically significant improvement in mGCSI-DD score (in words): did not experience significant improvement
[1]
  Mean Change from Baseline to Week 4 in mGCSI-DD: −1.2 (−1.2)
  Mean mGCSI-DD total score at Week 4: 1.6 (1.6)
  Bloating: P
  Bloating (listed under PAGI-SYM Questionnaire): P
  Days w/o Nausea: P
  Days w/o Upper Abdominal Pain or Upper Abdominal Discomfort: P
  Days w/o Vomiting: P
  Days w/o Vomiting or Nausea: P
  Days w/o Vomiting or Retching &, No Use of Rescue Medication: A
  Early Satiety: P
  Early Satiety (listed under PAGI-SYM Questionnaire): P
  Feeling Full: P
  GCSI-DD: P
  Investigator Assessment of Overall Gastroparesis Severity: P
  Investigator Assessment of Overall Treatment Effect: A
  Loss of Appetite: P
  Nausea: P
  Nausea Responder Analysis: P
  Nausea Response by Response Threshold: P
  Nausea/Vomiting (listed under PAGI-SYM Questionnaire): P
  Overall Severity of Gastroparesis Symptoms - Subject: A
  PAGI-SYM Questionnaire: P
  Retching: P
  Sheehan Disability Scales: A
  Stomach Fullness: P
  Stomach Larger: P
  Subject Assessment of Overall Gastroparesis Severity: P
  Subject Assessment of Overall Treatment Effect: A
  Upper Abdominal Discomfort: P
  Upper Abdominal Pain: P
  Upper Abdominal Pain/Discomfort (listed under PAGI-SYM Questionnaire): P
  Vomiting: A
  mGCSI-DD (primary endpoint): P
[2]
  Mean Change from Baseline to Week 4 in mGCSI-DD: −1.2
  Mean mGCSI-DD total score at Week 4: 1.6
males, 10 mg IN vs placebo
  Difference of Least Square Means, mGCSI-DD change from Baseline to Week 4: 0.18
[3]
  Mean Change from Baseline to Week 4 in mGCSI-DD: −0.9
  Mean mGCSI-DD total score at Week 4: 1.7 (1.7)
  Bloating: P
  Bloating (listed under PAGI-SYM Questionnaire): P (p < 0.05)
  Days w/o Nausea: P
  Days w/o Upper Abdominal Pain or Upper Abdominal Discomfort: P (p < 0.05)
  Days w/o Vomiting: P
  Days w/o Vomiting or Nausea: P
  Days w/o Vomiting or Retching &, No Use of Rescue Medication: A
  Early Satiety: P (p < 0.05) and P
  Early Satiety (listed under PAGI-SYM Questionnaire): P (p < 0.05)
  Feeling Full: P
  GCSI-DD: P
  Investigator Assessment of Overall Gastroparesis Severity: P
  Investigator Assessment of Overall Treatment Effect: P
  Loss of Appetite: P (p < 0.05)
  Nausea: P
  Nausea Responder Analysis: P
  Nausea Response by Response Threshold: P
  Nausea/Vomiting (listed under PAGI-SYM Questionnaire): P
  Overall Severity of Gastroparesis Symptoms - Subject: A
  PAGI-SYM Questionnaire: P
  Retching: P
  Sheehan Disability Scales: A
  Stomach Fullness: P
  Stomach Larger: P (p < 0.05)
  Subject Assessment of Overall Gastroparesis Severity: P
  Subject Assessment of Overall Treatment Effect: P
  Upper Abdominal Discomfort: P
  Upper Abdominal Pain: P
  Upper Abdominal Pain/Discomfort (listed under PAGI-SYM Questionnaire): P
  Vomiting: A
  mGCSI-DD (primary endpoint): P
males, 14 mg IN four times daily, listed as Metoclopramide
  Mean mGCSI-DD total score at Week 4: 1.7
males, 14 mg IN vs Metoclopramide 10 mg
  Difference of Least Square Means, mGCSI-DD change from Baseline to Week 4: 0.14
males, 14 mg IN vs placebo
  Difference of Least Square Means, mGCSI-DD change from Baseline to Week 4: 0.32
